For data set [1], the system named is rat. Conditions: Multigenerational reproductive toxicity study, wistar, Oral, Feed, dose end: 4 generation.
Data set [2] deals with rat. Conditions: Prenatal developmental toxicity study, sprague dawley, Oral, Gavage/Intubation, dose end: 19 GD.
Data set [3] has as its system rat. The conditions noted are these: Prenatal developmental toxicity study, wistar, Oral, Gavage/Intubation, dose end: 15 GD.
The subject of data set [4] is mouse. The conditions noted are these: Carcinogenicity, b6c3f1, Oral, Feed, dose end: 104 week.
For data set [5], the system named is mouse. Conditions: Combined chronic toxicity/carcinogenicity, b6c3f1, Oral, Feed, dose end: 2 year.
For data set [6], the system named is rat. The conditions noted are these: Combined chronic toxicity/carcinogenicity, other, Oral, Feed, dose end: 105 week.
For data set [7], the system named is dog. The conditions noted are these: Subchronic oral toxicity in nonrodent, beagle, Capsule, dose end: 5 month.
Data set [8] concerns rabbit. The conditions noted are these: Prenatal developmental toxicity study, new zealand white, Oral, Gavage/Intubation, dose end: 19 GD.
Data set [9] relates to mouse. The conditions noted are these: Prenatal developmental toxicity study, cd1, Oral, Gavage/Intubation, dose end: 15 GD.
Data set [10] concerns rat. The conditions noted are these: Prenatal developmental toxicity study, sprague dawley, Oral, Gavage/Intubation, dose end: 15 GD.
Data set [11] deals with rabbit. The conditions noted are these: Prenatal developmental toxicity study, new zealand white, Oral, Gavage/Intubation, dose end: 19 GD. This is another data set of the same source.
Data set [12] relates to mouse. Conditions: Combined chronic toxicity/carcinogenicity, cd1, Oral, Feed, dose end: 24 month.
The subject of data set [13] is rat. Conditions: Multigenerational reproductive toxicity study, other, Oral, Feed, dose end: 2 generation.
The mark [14] stands for this setting: group: offspring, developmental / developmental malformation / bone / absent + developmental / developmental malformation / bone / incomplete ossification + ….
Setting [15] is: group: offspring, systemic / in life observation / body weight / offspring (pup) weight gain.
[16] abbreviates: group: parental, systemic / in life observation / body weight / body weight gain.
The mark [17] stands for this setting: group: reproductive, reproductive / reproductive performance / fertility / fertility + reproductive / reproductive performance / pregnancy / pregnancy.
Where [18] appears, read: group: reproductive, reproductive / reproductive performance / fertility / fertility + reproductive / reproductive performance / pregnancy / pregnancy + ….
Setting [19] is: group: developmental, developmental / developmental malformation / bone / bipartite ossification + developmental / developmental malformation / bone / ….
[20] abbreviates: group: maternal, systemic / in life observation / body weight / body weight + systemic / in life observation / clinical signs / abnormal gait + systemic / in….
The mark [21] stands for this setting: group: developmental, developmental / developmental malformation / general / [other].
The mark [22] stands for this setting: group: maternal, systemic / in life observation / body weight / body weight + systemic / in life observation / food consumption / food consumption.
The mark [23] stands for this setting: group: cholinesterase, cholinesterase / cholinesterase / cholinesterase / erythrocyte cholinesterase (che) + cholinesterase / cholinesterase / cholinesterase / ….
Setting [24] is: group: systemic, systemic / organ weight / lung / absolute.
The mark [25] stands for this setting: group: systemic, systemic / in life observation / body weight / body weight gain + systemic / pathology microscopic / kidney / regeneration.
The mark [26] stands for this setting: group: cholinesterase, cholinesterase / cholinesterase / cholinesterase / brain cholinesterase (che) + cholinesterase / cholinesterase / cholinesterase / ….
The mark [27] stands for this setting: group: systemic, systemic / hematology / erythrocyte (rbc) count differential / erythrocyte (rbc) + systemic / hematology / hematocrit (hct) / hematocrit (….
The mark [28] stands for this setting: group: cholinesterase, cholinesterase / cholinesterase / cholinesterase / plasma cholinesterase (che).
The mark [29] stands for this setting: group: cholinesterase, cholinesterase / cholinesterase / cholinesterase / plasma cholinesterase (che) + cholinesterase / cholinesterase / cholinesterase / brain ….
The mark [30] stands for this setting: group: systemic, systemic / in life observation / clinical signs / soft stools.
Where [31] appears, read: group: developmental, developmental / developmental malformation / bone / [other] + developmental / developmental malformation / bone / absent + developmental / ….
Setting [32] is: group: maternal, reproductive / reproductive performance / postimplantation loss / postimplantation loss + systemic / in life observation / body weight / ….
[33] abbreviates: group: developmental, developmental / developmental malformation / bone / exencephaly + developmental / developmental malformation / bone / fused + developmental….
Where [34] appears, read: group: maternal, systemic / in life observation / body weight / body weight + systemic / in life observation / body weight / body weight gain + systemic / in….
[35] abbreviates: group: developmental, systemic / in life observation / body weight / fetal weight.
Setting [36] is: group: maternal, reproductive / reproductive performance / implantations / implantations + systemic / in life observation / body weight / body weight gain + ….
Where [37] appears, read: group: cholinesterase, cholinesterase / cholinesterase / cholinesterase / brain cholinesterase (che).
Setting [38] is: group: cholinesterase, cholinesterase / cholinesterase / cholinesterase / brain cholinesterase (che) + cholinesterase / cholinesterase / cholinesterase / plasma ….
The mark [39] stands for this setting: group: systemic, systemic / pathology microscopic / liver / adenoma + systemic / pathology gross / liver / mass.
[40] abbreviates: group: systemic, systemic / pathology microscopic / liver / adenoma + systemic / pathology microscopic / liver / adenoma/carcinoma combined + systemic / ….
Setting [41] is: group: offspring, systemic / pathology microscopic / ureter / hyperplasia.
Setting [42] is: group: parental, systemic / in life observation / clinical signs / motor activity.

Usually LOAEL stands for the lowest tested level that showed an adverse finding. What is called NOAEL is the highest dose or exposure tested at which no adverse effect was seen. For `CC(O)CCO` (stereo not drawn) [1,3-Butanediol], the LOAEL in data set [1] (setting [14]), in [1] (setting [16]) and in data set [1] (setting [18]) was greater than 12000 mg/kg/day each time. Moreover, the NOAEL in data set [1] (setting [14]), in [1] (setting [16]) and in [1] (setting [18]) was no less than 12000 mg/kg/day each time. Also, the LEL in data set [1] (setting [15]), in data set [1] (setting [16]) and in [1] (setting [17]) was 2500 mg/kg/day each time. Besides, the NEL in data set [1] (setting [15]), in [1] (setting [16]) and in [1] (setting [17]) was less than 2500 mg/kg/day throughout.
As for `OC(CCl)CCl` [1,3-Dichloro-2-propanol], in data set [2] (setting [19]), the LEL was determined as 90 mg/kg/day, the LOAEL is greater than 90 mg/kg/day, the NEL was determined as 30 mg/kg/day and the no observed adverse effect level (NOAEL) is no less than 90 mg/kg/day. In data set [2] (setting [20]), the LOAEL is greater than 90 mg/kg/day, the NEL stood at 10 mg/kg/day and the no observed adverse effect level (NOAEL) was no less than 90 mg/kg/day. In [2] (group: maternal, systemic / in life observation / clinical signs / motor activity + systemic / in life observation / food consumption / food consumption + …), the LEL is 30 mg/kg/day.
For `OCC#CCO` [2-Butyne-1,4-diol], in [3] (setting [21]), the LEL stood at 80 mg/kg/day, the LOAEL was greater than 80 mg/kg/day, the NEL was 40 mg/kg/day and the NOAEL is no less than 80 mg/kg/day. Further, in data set [3] (setting [22]), the LEL amounted to 80 mg/kg/day, the LOAEL was greater than 80 mg/kg/day, the NEL was found to be 40 mg/kg/day and the NOAEL is no less than 80 mg/kg/day.
For the compound `CCCSP(=O)(OCC)SCCC` [Ethoprop], the LEL in data set [4] (setting [23]) turned out to be 0.254 mg/kg/day; in [4] (setting [24]), 0.032 mg/kg/day; in data set [5] (setting [23]) it was 0.306 mg/kg/day; in data set [5] (group: systemic, systemic / pathology microscopic / kidney / regeneration), 0.306 mg/kg/day; in [6] (setting [26]), 3 mg/kg/day; in data set [6] (setting [27]), 20 mg/kg/day. Moreover, the LEL in data set [7] (setting [28]) and in data set [7] (setting [30]) was 0.025 mg/kg/day in each case. Moreover, the lowest observed adverse effect level (LOAEL) in data set [4] (setting [23]) is 0.254 mg/kg/day; in [4] (group: systemic, systemic / in life observation / body weight / body weight + systemic / in life observation / body weight / body weight gain), 3.96 mg/kg/day; in data set [5] (setting [23]), 0.306 mg/kg/day; in [5] (group: systemic, systemic / in life observation / body weight / body weight gain) it was 4.44 mg/kg/day; in [6] (setting [26]), 3 mg/kg/day; in data set [6] (setting [27]), 20 mg/kg/day. Moreover, the LOAEL in data set [7] (setting [28]) was 0.025 mg/kg/day; in data set [7] (setting [30]) it was greater than 1 mg/kg/day. Besides, the NEL in [4] (setting [23]) is 0.026 mg/kg/day; in data set [4] (setting [24]), less than 0.032 mg/kg/day; in [5] (setting [23]), 0.032 mg/kg/day; in [5] (setting [25]), 0.032 mg/kg/day; in data set [6] (setting [26]), 0.05 mg/kg/day; in data set [6] (group: systemic, systemic / organ weight / kidney / relative to body weight + systemic / organ weight / thyroid gland / relative to body weight), 3 mg/kg/day. For the same compound, the NEL in [7] (setting [29]) and in data set [7] (setting [30]) was 0.01 mg/kg/day in each case. In addition, the NOAEL came to 0.026 mg/kg/day in [4] (setting [23]); 0.254 mg/kg/day in [4] (group: systemic, systemic / in life observation / body weight / body weight + systemic / in life observation / body weight / body weight gain + systemic / in…); 0.032 mg/kg/day in [5] (setting [23]); 0.306 mg/kg/day in [5] (setting [25]); 0.05 mg/kg/day in data set [6] (setting [26]); 3 mg/kg/day in data set [6] (setting [27]). For the same compound, the NOAEL in data set [7] (setting [29]) is 0.01 mg/kg/day; in data set [7] (setting [30]) it was no less than 1 mg/kg/day.
For the compound `CCOCCOCC` [Ethylene glycol diethyl ether], in [8] (setting [31]), the LEL amounted to 100 mg/kg/day, the LOAEL is greater than 100 mg/kg/day, the NEL was found to be 50 mg/kg/day and the NOAEL was no less than 100 mg/kg/day. In data set [8] (setting [32]), the LEL stood at 100 mg/kg/day, the LOAEL is greater than 100 mg/kg/day, the NEL stood at 50 mg/kg/day and the NOAEL is no less than 100 mg/kg/day. In data set [9] (setting [33]), the LEL was found to be 500 mg/kg/day, the LOAEL was greater than 1000 mg/kg/day, the NEL was found to be 150 mg/kg/day and the NOAEL is no less than 1000 mg/kg/day. Further, in data set [9] (setting [32]), the LEL is 1000 mg/kg/day, the LOAEL is greater than 1000 mg/kg/day, the NEL was 500 mg/kg/day and the NOAEL is no less than 1000 mg/kg/day.
As to `CN(C)c1ccc(C(=C2C=CC(=[N+](C)C)C=C2)c2ccc(N(C)C)cc2)cc1.[Cl-]` [Gentian Violet], the LEL is 10 mg/kg/day in data set [10] (setting [21]); 5 mg/kg/day in data set [10] (group: maternal, systemic / in life observation / body weight / body weight gain); 0.5 mg/kg/day in [11] (setting [35]); 0.5 mg/kg/day in data set [11] (setting [36]). Also, the LOAEL was greater than 10 mg/kg/day in [10] (setting [21]), greater than 10 mg/kg/day in [10] (setting [34]), greater than 2 mg/kg/day in data set [11] (setting [35]) and greater than 2 mg/kg/day in data set [11] (setting [36]). The NEL in data set [10] (setting [21]) was 5 mg/kg/day; in [10] (setting [34]), 2.5 mg/kg/day; in data set [11] (setting [35]), less than 0.5 mg/kg/day; in data set [11] (setting [36]) it was less than 0.5 mg/kg/day. The NOAEL is no less than 10 mg/kg/day in data set [10] (setting [21]), no less than 10 mg/kg/day in data set [10] (setting [34]), no less than 2 mg/kg/day in data set [11] (setting [35]) and no less than 2 mg/kg/day in data set [11] (setting [36]).
As to `COc1nn(CSP(=S)(OC)OC)c(=O)s1` [Methidathion], in data set [12] (setting [37]), the LEL turned out to be 1.6 mg/kg/day and the LOAEL is 7.5 mg/kg/day. For the same compound, in data set [12] (setting [38]), the NEL is 0.46 mg/kg/day and the NOAEL was found to be 1.6 mg/kg/day. Further, in [12] (setting [39]), the LEL came to 0.46 mg/kg/day and the NEL was less than 0.46 mg/kg/day. In addition, in [12] (setting [40]), the LOAEL is 7.5 mg/kg/day and the NOAEL amounted to 1.6 mg/kg/day.
In [13] (setting [41]), `COc1cc(OC)nc(NC(=O)NS(=O)(=O)Nc2ccccc2C(=O)N(C)C)n1` [Orthosulfamuron] yielded an LEL of 765 mg/kg/day, an LOAEL greater than 765 mg/kg/day, an NEL of 205 mg/kg/day and an NOAEL of no less than 765 mg/kg/day. Further, in [13] (setting [42]), the LEL came out at 635 mg/kg/day, the LOAEL was determined as 635 mg/kg/day, the NEL amounted to 145 mg/kg/day and the no observed adverse effect level (NOAEL) came to 145 mg/kg/day.

Source of the values: EPA's ToxRefDB 2.
